# Results from patent publication US20070299091A1, “Azaindole Carboxamides” (priority 2004, published 2007).
# Assays:
# D1-receptor = molecular target: T1, D1-receptor (Sus scrofa, UniProt P50130); assay: radioligand binding, D1 receptor, [3H]SCH 23390, porcine striatum membrane homogenates; settings: porcine D1, [3H]SCH 23390; average of 2-6 experiments in triplicate
# T1 construct: native membrane homogenates, obtained from porcine striatum; from tissue; host or cells: porcine striatum
# Experimental: (§1) The biological activities of the compounds according to the invention were determined in radioligand bonding investigations. All radioligand experiments were performed according to methods described by us (Hübner, H. et al. J. Med. Chem. 2000, 43, 756-762). For the measurement of the affinities to the receptors of the D2-family membrane homogenates of Chinese hamster ovary cells (CHO cells) were used, which stably express the human D2long-, the human D2short- (Hayes, G. et al. Mol. Endocrinol. 1992, 6, 920-926), the human D3- (Sokoloff, P. et al. Eur. J. Pharmacol. 1992, 225, 331-337) or the human D4.4-receptor sub-type, (Asghari, V. J. Neurochem. 1995, 65,1157-1165) respectively. Basically the binding assays took place by incubation of the receptor homogenates with the radioligand [^3H]spiperone and the compounds under investigation in various concentrations. Determination of the affinities to the D1-receptor took place with native membrane homogenates, obtained from porcine striatum, and the D1-selective radioligands [^3H]SCH 23390.
# human D2long = molecular target: T2, human D2long (Homo sapiens, UniProt P14416); assay: radioligand binding, [3H]spiperone, CHO cell membrane homogenates expressing human D2long; settings: for Ki: human D2long, [3H]spiperon, average of 2-6 experiments in triplicate; for D3-selectivity D2long/D3: ratio of Ki values D2long/D3
# T2 construct: expressed in transfected cells
# Experimental: (§2) The biological activities of the compounds according to the invention were determined in radioligand bonding investigations. […] Mol. […] Neurochem. […] Basically the binding assays took place by incubation of the receptor homogenates with the radioligand [^3H]spiperone and the compounds under investigation in various concentrations.
# human D2short = molecular target: T3, human D2short (Homo sapiens, UniProt P14416); assay: radioligand binding, [3H]spiperone, CHO cell membrane homogenates expressing human D2short; settings: for Ki: human D2short, [3H]spiperon, average of 2-6 experiments in triplicate; for D3-selectivity D2short/D3: ratio of Ki values D2short/D3
# T3 construct: expressed in transfected cells
# Experimental: as §2
# human D3 = molecular target: T4, human D3 (Homo sapiens, UniProt P35462); assay: radioligand binding, [3H]spiperone, CHO cell membrane homogenates expressing human D3; settings: human D3, [3H]spiperon; average of 2-6 experiments in triplicate
# T4 construct: expressed in transfected cells
# Experimental: as §1
# human D4.4-receptor = molecular target: T5, human D4.4-receptor (Homo sapiens, UniProt P21917); assay: radioligand binding, [3H]spiperone, CHO cell membrane homogenates expressing human D4.4; settings: for Ki: human D4.4, [3H]spiperon, average of 2-6 experiments in triplicate; for D3-selectivity D4.4/D3: ratio of Ki values D4.4/D3
# T5 construct: expressed in transfected cells
# T5 sequence (P21917 1-419): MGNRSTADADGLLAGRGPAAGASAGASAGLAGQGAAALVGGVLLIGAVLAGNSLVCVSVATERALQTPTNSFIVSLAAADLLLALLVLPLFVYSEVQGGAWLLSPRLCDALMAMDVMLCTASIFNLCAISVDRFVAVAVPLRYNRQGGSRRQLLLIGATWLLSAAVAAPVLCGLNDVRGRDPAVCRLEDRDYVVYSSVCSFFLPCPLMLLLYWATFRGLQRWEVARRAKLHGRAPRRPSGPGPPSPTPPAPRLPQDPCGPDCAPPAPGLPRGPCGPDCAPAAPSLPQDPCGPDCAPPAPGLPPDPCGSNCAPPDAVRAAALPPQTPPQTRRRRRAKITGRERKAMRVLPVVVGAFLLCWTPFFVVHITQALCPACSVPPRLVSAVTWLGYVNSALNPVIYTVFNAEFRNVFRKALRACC
# Experimental: as §2
# dopamine-D3-receptor = molecular target: T6, dopamine-D3-receptor (Homo sapiens, UniProt P35462); assay: mitogenesis assay, [3H]thymidine incorporation in D3 receptor-expressing cells; type: cell-based; settings: for EC50: dose-effect curve from average values of all individual trials, seven concentrations in quadruplicate; for classification of intrinsic activity at the D3-receptor: mitogenesis assay, compared with full agonist quinpirol; for agonistic activity: with reference to the maximum effect of the full agonist Quinpirol
# T6 construct: expressed in transfected cells
# Experimental: Here various concentrations of the compound under investigation were incubated with D3 receptor-expressing cells and then the receptor-mediated stimulation of the mitogenesis rate was measured by incorporation of the radioactive marker [^3H]thymidine.
# 5-HT1A [1] = molecular target: T7, 5-HT1A (Sus scrofa, UniProt A0A4X1UTF5); assay: radioligand binding, [3H]8-OH-DPAT, porcine cortex-membrane preparations; settings: porcine 5-HT1A, [3H]8-OH-DPAT; average of 2 experiments in triplicate
# T7 construct: we incubated porcine cortex-membrane preparations with the radioligands; from tissue; host or cells: porcine cortex
# T7 sequence (A0A4X1UTF5 1-422): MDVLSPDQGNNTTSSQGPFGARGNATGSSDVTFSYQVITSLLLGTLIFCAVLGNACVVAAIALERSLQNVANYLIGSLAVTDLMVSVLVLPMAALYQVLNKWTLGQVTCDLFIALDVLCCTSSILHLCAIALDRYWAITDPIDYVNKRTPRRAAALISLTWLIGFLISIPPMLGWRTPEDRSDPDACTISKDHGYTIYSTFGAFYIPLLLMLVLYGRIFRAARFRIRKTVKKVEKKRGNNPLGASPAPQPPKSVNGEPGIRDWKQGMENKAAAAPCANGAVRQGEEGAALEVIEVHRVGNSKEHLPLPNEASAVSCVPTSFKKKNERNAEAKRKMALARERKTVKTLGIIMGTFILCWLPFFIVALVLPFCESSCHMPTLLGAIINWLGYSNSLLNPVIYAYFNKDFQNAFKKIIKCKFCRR
# Experimental: (§3) Measurement of the bonding strengths of the compounds to the serotonin-receptor subtypes 5-HT1A and 5-HT2 was carried out according to methods described by us (Heindl, C. et al. Tetrahedron: Asymmetry 2003, 14, 3141-3152). For this we incubated porcine cortex-membrane preparations with the radioligands [^3H]8-OH-DPAT (for 5-HT1A) or [^3H]ketanserin (5-HT2) and the compounds in various concentrations. In the same way the affinity of the test compounds to the porcine α1-receptor was investigated, wherein porcine cortex-membrane preparations and the α1-selective radioligand [^3H]prazosin were used.
# 5-HT1A [2] = assay: as above; settings: ratio of Ki values 5-HT1A/D3
# Experimental: as §3
# 5-HT2 = 5-HT2 (Sus scrofa, UniProt P50129); assay: radioligand binding, [3H]ketanserin, porcine cortex-membrane preparations; settings: for Ki: porcine 5-HT2, [3H]ketanserin, average of 2 experiments in triplicate; for D3-selectivity 5-HT2/D3: ratio of Ki values 5-HT2/D3
# Experimental: as §3
# porcine α1-receptor [3] = assay: radioligand binding, [3H]prazosin, porcine cortex-membrane preparations; settings: ratio of Ki values α1/D3
# Experimental: as §3
# porcine α1-receptor [4] = molecular target: T8, porcine α1-receptor; assay: as above; settings: porcine α1, [3H]prazosin; average of 2 experiments in triplicate
# T8 construct: Ki-values α1; other: porcine α1, [3H]prazosin; average of 2 experiments in triplicate
# Experimental: as §3
# T4 sequence (P35462 whole entry): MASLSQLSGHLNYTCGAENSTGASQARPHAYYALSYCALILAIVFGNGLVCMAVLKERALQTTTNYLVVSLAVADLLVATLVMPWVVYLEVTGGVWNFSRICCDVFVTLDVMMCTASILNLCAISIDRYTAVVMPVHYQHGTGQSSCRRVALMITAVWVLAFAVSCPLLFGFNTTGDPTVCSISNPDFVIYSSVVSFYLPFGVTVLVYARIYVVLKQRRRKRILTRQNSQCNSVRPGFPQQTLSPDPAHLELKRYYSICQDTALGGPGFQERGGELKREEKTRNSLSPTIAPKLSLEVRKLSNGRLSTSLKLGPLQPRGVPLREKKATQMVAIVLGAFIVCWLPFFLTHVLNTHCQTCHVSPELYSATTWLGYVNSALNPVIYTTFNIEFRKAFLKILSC
# T6 sequence (P35462 whole entry): as above
# Sequence of 5-HT2 (P50129 whole entry): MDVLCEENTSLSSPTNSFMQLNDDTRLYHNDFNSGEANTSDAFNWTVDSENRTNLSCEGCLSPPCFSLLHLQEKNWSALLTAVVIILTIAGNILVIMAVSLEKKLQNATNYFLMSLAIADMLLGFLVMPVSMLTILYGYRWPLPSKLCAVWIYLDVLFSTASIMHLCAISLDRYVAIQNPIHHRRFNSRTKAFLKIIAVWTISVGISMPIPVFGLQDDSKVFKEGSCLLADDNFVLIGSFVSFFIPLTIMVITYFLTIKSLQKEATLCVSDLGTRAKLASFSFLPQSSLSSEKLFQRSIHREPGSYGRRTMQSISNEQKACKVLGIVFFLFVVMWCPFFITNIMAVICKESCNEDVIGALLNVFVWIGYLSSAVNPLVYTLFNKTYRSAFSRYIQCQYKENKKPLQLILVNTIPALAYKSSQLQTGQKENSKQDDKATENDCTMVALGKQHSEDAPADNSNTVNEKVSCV
# T2 sequence (P14416 whole entry): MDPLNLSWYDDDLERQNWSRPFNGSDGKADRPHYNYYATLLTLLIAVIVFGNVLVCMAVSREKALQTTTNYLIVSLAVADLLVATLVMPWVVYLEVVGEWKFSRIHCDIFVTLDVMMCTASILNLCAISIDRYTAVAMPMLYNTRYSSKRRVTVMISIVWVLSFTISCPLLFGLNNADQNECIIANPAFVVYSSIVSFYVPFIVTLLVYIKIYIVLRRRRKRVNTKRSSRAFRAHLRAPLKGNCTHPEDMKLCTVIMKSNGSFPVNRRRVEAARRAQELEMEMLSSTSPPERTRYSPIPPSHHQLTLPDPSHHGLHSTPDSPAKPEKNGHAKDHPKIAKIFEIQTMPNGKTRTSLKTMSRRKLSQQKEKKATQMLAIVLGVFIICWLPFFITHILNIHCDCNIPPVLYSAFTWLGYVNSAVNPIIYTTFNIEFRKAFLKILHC
# T1 sequence (P50130 whole entry): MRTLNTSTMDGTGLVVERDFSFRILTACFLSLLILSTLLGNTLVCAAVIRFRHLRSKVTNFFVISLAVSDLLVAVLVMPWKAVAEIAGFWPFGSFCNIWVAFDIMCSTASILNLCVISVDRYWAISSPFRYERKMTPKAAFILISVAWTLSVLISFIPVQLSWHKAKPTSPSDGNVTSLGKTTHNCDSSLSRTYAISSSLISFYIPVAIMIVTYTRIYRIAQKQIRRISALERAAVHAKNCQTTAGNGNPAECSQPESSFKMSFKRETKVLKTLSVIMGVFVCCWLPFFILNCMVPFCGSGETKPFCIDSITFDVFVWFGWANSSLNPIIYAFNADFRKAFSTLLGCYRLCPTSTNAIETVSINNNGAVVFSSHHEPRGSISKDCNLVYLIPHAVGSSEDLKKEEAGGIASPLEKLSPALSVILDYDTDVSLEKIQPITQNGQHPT
# T3 sequence (P14416 1-414 isoform P14416-2): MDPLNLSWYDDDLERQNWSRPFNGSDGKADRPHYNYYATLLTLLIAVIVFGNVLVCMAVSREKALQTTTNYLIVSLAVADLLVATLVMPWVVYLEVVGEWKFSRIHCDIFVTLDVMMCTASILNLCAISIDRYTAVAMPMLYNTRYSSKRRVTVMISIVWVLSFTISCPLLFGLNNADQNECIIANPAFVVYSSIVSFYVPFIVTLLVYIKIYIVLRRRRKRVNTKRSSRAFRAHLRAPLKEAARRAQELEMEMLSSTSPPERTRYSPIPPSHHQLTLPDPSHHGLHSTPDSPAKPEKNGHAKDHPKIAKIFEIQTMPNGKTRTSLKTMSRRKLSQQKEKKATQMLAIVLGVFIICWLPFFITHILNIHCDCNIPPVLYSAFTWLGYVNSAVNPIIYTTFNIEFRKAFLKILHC
SMILES,Ki (D1-receptor) [nM],Ki (human D2long) [nM],D3-selectivity D2long/D3 (human D2long),Ki (human D2short) [nM],D3-selectivity D2short/D3 (human D2short),Ki (human D3) [nM],Ki (human D4.4-receptor) [nM],D3-selectivity D4.4/D3 (human D4.4-receptor),EC50 (dopamine-D3-receptor) [nM],classification of intrinsic activity at the D3-receptor (dopamine-D3-receptor),agonistic activity (dopamine-D3-receptor) [%],Ki (5-HT1A [1]) [nM],D3-selectivity 5-HT1A/D3 (5-HT1A [2]),Ki (5-HT2) [nM],D3-selectivity 5-HT2/D3 (5-HT2),D3-selectivity α1/D3 (porcine α1-receptor [3]),Ki (porcine α1-receptor [4]) [nM],melting point [°C]
"O=C(NCCCCN1CCN(c2cccc(Cl)c2Cl)CC1)c1cc2cccnc2n1S(=O)(=O)c1ccccc1 [Example 4, N-(4-(4-(2,3-dichlorophenyl)piperazin-1-yl)butyl)-1-phenylsulfonyl-1H-pyrrolo[2,3-b]pyridin-2-ylcarbamide]",680,68,85,39,49,0.8,110,140,2.1,weakly partially agonistic,16,16,20,200,250,26,21,82
"O=C(NCCCCN1CCN(c2cccc(Cl)c2Cl)CC1)c1cc2cccnc2[nH]1 [Example 3, N-(4-(4-(2,3-dichlorophenyl)piperazin-1-yl)butyl)-1H-pyrrolo[2,3-b]pyridin-2-ylcarbamide]",440,19,150,6.5,34,0.13,42,320,1.3,partial agonist,41,24,180,63,480,28,3.6,232
"COc1ccccc1N1CCN(CCCCNC(=O)c2cc3cccnc3n2S(=O)(=O)c2ccccc2)CC1 [Example 2, N-(4-(4-(2-methoxyphenyl)piperazin-1-yl)butyl)-1-phenylsulfonyl-1H-pyrrolo[2,3-b]pyridin-2-ylcarbamide]",1300,180,19,110,12,9.3,130,14,7.9,weakly partially agonistic,12,14,1.5,1100,120,0.49,4.6,166
"COc1ccccc1N1CCN(CCCCNC(=O)c2cc3cccnc3[nH]2)CC1 [Example 1, N-(4-(4-(2-methoxyphenyl)piperazin-1-yl)butyl)-1H-pyrrolo[2,3-b]pyridin-2-ylcarbamide]",1500,58,71,42,51,0.82,32,39,0.96,weakly partially agonistic,14,23,28,340,–,1.6,1.3,117
